Results taken from ChEMBL document CHEMBL1201862, “PubChem BioAssay data set” (2004).
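96-well plates; 48 h exposure; 5 concentrations. Endpoints by linear interpolation between flanking doses. Not reached: highest tested concentration assigned. The concentration for 50% growth inhibition is given as GI50.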 Activity calls are given as the source filed them. Cut-off read from the data, not from the text of the source: active = GI50 up to about 1.1 µM and inactive = higher.

How the values were obtained:
Assay in all cases: DTP human tumour cell line panel, 48 h
[1] = tested on: OVCAR-8
[2] = tested on: UACC-62
[3] = tested on: BT-549
[4] = tested on: SNB-19
[5] = tested on: SNB-75
[6] = tested on: A549
[7] = tested on: SF-268
[8] = tested on: EKVX
[9] = tested on: SK-MEL-5
[10] = tested on: HL-60
[11] = tested on: OVCAR-5
[12] = tested on: SF-295
[13] = tested on: SF-539
[14] = tested on: PC-3
[15] = tested on: U-251
[16] = tested on: SN12C
[17] = tested on: MDA-MB-435
[18] = tested on: SK-MEL-2

Row | Structure (SMILES) | GI50 [1] | GI50 [2] | GI50 [3] | GI50 [4] | GI50 [5] | GI50 [6] | GI50 [7] | GI50 [8] | GI50 [9] | GI50 [10] | GI50 [11] | GI50 [12] | GI50 [13] | GI50 [14] | GI50 [15] | GI50 [16] | GI50 [17] | GI50 [18]
1 | COc1cccc(C=C(C#N)C#N)c1OC | > 100 µM (inactive) | > 100 µM (inactive) | > 100 µM (inactive) | > 100 µM (inactive) | 43.2 µM (inactive) | > 100 µM (inactive) | > 100 µM (inactive) | > 100 µM (inactive) | > 100 µM (inactive) | 85.9 µM (inactive) | > 100 µM (inactive) | > 100 µM (inactive) | > 100 µM (inactive) | > 100 µM (inactive) | > 100 µM (inactive) | > 100 µM (inactive) | – | –
2 | C=C1C(=O)O[C@H]2[C@H]1CC(=O)/C(C)=C/CC[C@@]1(C)O[C@@H]21 | 2.01 µM (inactive) | 1.37 µM (inactive) | 0.423 µM (active) | 3.2 µM (inactive) | 16.7 µM (inactive) | 12.7 µM (inactive) | 3.45 µM (inactive) | – | 0.973 µM (active) | – | 2.15 µM (inactive) | 16.2 µM (inactive) | 2.08 µM (inactive) | 2.19 µM (inactive) | 5 µM (inactive) | 1.66 µM (inactive) | 1.53 µM (inactive) | 3.03 µM (inactive)
3 | CC(=O)OC1C(COC(=O)c2ccccc2)OC(Nc2ncc(-c3ccc(Br)cc3)s2)C(OC(=O)c2ccccc2)C1OC(=O)c1ccccc1 (centres undefined) | > 100 µM (inactive) | > 100 µM (inactive) | > 100 µM (inactive) | > 100 µM (inactive) | > 100 µM (inactive) | > 100 µM (inactive) | > 100 µM (inactive) | > 100 µM (inactive) | > 100 µM (inactive) | – | > 100 µM (inactive) | > 100 µM (inactive) | – | > 100 µM (inactive) | > 100 µM (inactive) | > 100 µM (inactive) | > 100 µM (inactive) | 14.5 µM (inactive)
4 | Cc1cccc2nc3cc(O)cc(O)c3c(O)c12 | > 10 µM (inactive) | 6.49 µM (inactive) | > 10 µM (inactive) | > 10 µM (inactive) | 4.54 µM (inactive) | > 10 µM (inactive) | > 10 µM (inactive) | – | > 10 µM (inactive) | – | > 10 µM (inactive) | > 10 µM (inactive) | > 10 µM (inactive) | > 10 µM (inactive) | > 10 µM (inactive) | > 10 µM (inactive) | > 10 µM (inactive) | > 10 µM (inactive)
5 | COc1ccc(N2C(=O)/C(=C\c3cccc(Oc4ccccc4)c3)SC2c2ccccc2)cc1 (centres undefined) | 28.6 µM (inactive) | 50.2 µM (inactive) | 25.3 µM (inactive) | 24.2 µM (inactive) | – | > 100 µM (inactive) | 33.2 µM (inactive) | > 100 µM (inactive) | 27.9 µM (inactive) | 20.5 µM (inactive) | > 100 µM (inactive) | 60 µM (inactive) | 24.5 µM (inactive) | – | 26.1 µM (inactive) | > 100 µM (inactive) | 30.5 µM (inactive) | > 100 µM (inactive)
6 | C(=C\c1ccco1)/c1cccc(/C=C/c2ccco2)n1 | > 50 µM (inactive) | > 50 µM (inactive) | > 50 µM (inactive) | > 50 µM (inactive) | 13.2 µM (inactive) | > 50 µM (inactive) | > 50 µM (inactive) | > 50 µM (inactive) | > 50 µM (inactive) | > 50 µM (inactive) | > 50 µM (inactive) | > 50 µM (inactive) | > 50 µM (inactive) | – | – | > 50 µM (inactive) | > 50 µM (inactive) | –
7 | CCOC(=O)/C(=C\NC(C)(C)C)c1nc2ccccc2o1 | 39 µM (inactive) | 18.4 µM (inactive) | 26.7 µM (inactive) | 64 µM (inactive) | 31.9 µM (inactive) | 42.4 µM (inactive) | 37.8 µM (inactive) | > 100 µM (inactive) | 12.8 µM (inactive) | 2.42 µM (inactive) | 60 µM (inactive) | 34 µM (inactive) | 47.4 µM (inactive) | – | – | 50.1 µM (inactive) | 33.3 µM (inactive) | –
8 | CC1(C)Oc2ccc3c(=O)c4ccccc4oc3c2C1C(=O)O (centres undefined) | > 100 µM (inactive) | > 100 µM (inactive) | > 100 µM (inactive) | – | – | > 100 µM (inactive) | > 100 µM (inactive) | > 100 µM (inactive) | > 100 µM (inactive) | – | > 100 µM (inactive) | > 100 µM (inactive) | > 100 µM (inactive) | > 100 µM (inactive) | > 100 µM (inactive) | > 100 µM (inactive) | > 100 µM (inactive) | > 100 µM (inactive)
9 | Cn1c(COC(=O)NC2CCCCC2)c(COC(=O)NC2CCCCC2)c2ccc3ccccc3c21 | 40.2 µM (inactive) | 48.6 µM (inactive) | 55.3 µM (inactive) | 55.7 µM (inactive) | 26.1 µM (inactive) | 83.8 µM (inactive) | 22.4 µM (inactive) | 47.2 µM (inactive) | 31.7 µM (inactive) | – | 43.5 µM (inactive) | 41 µM (inactive) | 16 µM (inactive) | 75.9 µM (inactive) | > 100 µM (inactive) | – | 14.3 µM (inactive) | 31.6 µM (inactive)
10 | CCCCCC(=O)OCC1(CO)C/C(=C/CC(C(C)C)C(C)C)C(=O)O1 (centres undefined) | 21.9 µM (inactive) | > 75 µM (inactive) | > 75 µM (inactive) | 63.1 µM (inactive) | 74 µM (inactive) | 51.1 µM (inactive) | > 75 µM (inactive) | > 75 µM (inactive) | 48.8 µM (inactive) | – | > 75 µM (inactive) | 51.1 µM (inactive) | – | 63.5 µM (inactive) | 44.4 µM (inactive) | 30.5 µM (inactive) | 21.8 µM (inactive) | > 75 µM (inactive)
11 | COc1c(-c2nc3ccc(N4CCN(C)CC4)nc3[nH]2)cc(OC)c2[nH]c(COC(C)=O)nc12 | 50.4 µM (inactive) | 47.9 µM (inactive) | 56.9 µM (inactive) | 28.1 µM (inactive) | 24.4 µM (inactive) | 39.5 µM (inactive) | 61.8 µM (inactive) | 54.2 µM (inactive) | 16.2 µM (inactive) | – | 55.7 µM (inactive) | 34.4 µM (inactive) | 14.9 µM (inactive) | – | 13.8 µM (inactive) | 20.4 µM (inactive) | 26.5 µM (inactive) | 19.5 µM (inactive)
12 | N#Cc1c(O)c(C=O)c(=O)n2c1[nH]c1ccccc12 | > 100 µM (inactive) | > 100 µM (inactive) | > 100 µM (inactive) | > 100 µM (inactive) | > 100 µM (inactive) | > 100 µM (inactive) | > 100 µM (inactive) | > 100 µM (inactive) | > 100 µM (inactive) | – | > 100 µM (inactive) | > 100 µM (inactive) | > 100 µM (inactive) | > 100 µM (inactive) | > 100 µM (inactive) | > 100 µM (inactive) | > 100 µM (inactive) | –
